The values below are quoted from earlier work in patent publication US7998959B2, “Modulators of 11-β hydroxyl steroid dehydrogenase type 1, pharmaceutical compositions thereof, and methods of using the same” (Incyte Corporation, priority 2006, dated 2011).

Each structure is given as a SMILES string.

One data set has as its system healthy volunteers. Conditions: after seven days of treatment.
Data set [1] relates to pancreatic islet cells of ob/ob mice.
For data set [2], the system named is primary hippocampal cells.

For `CC1(C)[C@@H](OC(=O)CCC(=O)O)CC[C@]2(C)[C@H]3C(=O)C=C4[C@@H]5C[C@@](C)(C(=O)O)CC[C@]5(C)CC[C@@]4(C)[C@]3(C)CC[C@@H]12` [carbenoxolone], in the data set on healthy volunteers, the IOP reduced was 18%. Besides, the glucose-stimulated insulin release result in data set [1] is “improves glucose-stimulated insulin release”. Besides, the “protection from glucocorticoid-mediated exacerbation of excitatory amino acid neurotoxicity” value in data set [2] was “protects the cells from glucocorticoid-mediated exacerbation of excitatory amino acid neurotoxicity”. The “negative effects of glucocorticoids on bone nodule formation” value with bone nodule formation is listed as “attenuate the negative effects of glucocorticoids on bone nodule formation”.
